This note sets out measurements from paper PMC3634512, “Inhibition of Human Transthyretin Aggregation by Non-Steroidal Anti-Inflammatory Compounds: A Structural and Thermodynamic Analysis” (International Journal of Molecular Sciences, 2013).

For one test, the target named is T1, Transthyretin (WT-TTR) (Homo sapiens, UniProt P02766).
T1 construct: WT-TTR homotetramer
In words: crystal structure (soaked crystals); ANS displacement (apparent Kd). The format is binding.

The target in test [1] is T2, Transthyretin (L55P variant) (Homo sapiens, UniProt P02766, L75P).
T2 construct: gene TTR; L55P TTR homotetramer
In words: ANS displacement from the hormone binding site (apparent Kd).

As for `Cc1ccc(Nc2c(F)cccc2Cl)c(CC(=O)O)c1` [LUM, lumiracoxib], the Kd was 1.4 µM at Transthyretin (WT-TTR) and 1.7 µM in test [1].
